The results in this text go back to the NIST ThermoML archive (doi:10.1016/j.jct.2018.09.002).

The conditions of data set [1]: Liquid; for vapor or sublimation pressure: Ebulliometric method (Recirculating still); for Normal boiling temperature: Distillation.
The nature of data set [2]: refractive index (Na D-line) (dimensionless). To be noted: 101.33 kPa, Liquid, Standard Abbe refractometry.

Molecules are shown by their SMILES. Numbers after ± are expanded uncertainties.

As for `Cc1cccc(O)c1` [3-methylphenol], the “vapor or sublimation pressure” value in data set [1] (422.25 K) worked out at 20 ± 1.5 kPa.
For the compound `Cc1ccc(O)cc1` [4-methylphenol], the “vapor or sublimation pressure” value in data set [1] (421.95 K) was found to be 20 ± 1.5 kPa. Further, the Normal boiling temperature in data set [1] was 201.70 ± 2.2 °C. Further, the refractive index in data set [2] (303.15 K) was 1.5295 ± 0.0005; in data set [2] (308.15 K) it was 1.5288 ± 0.0005.
On to `OCCNCCO` [diethanolamine], for which, in data set [1] (489.08 K), the “vapor or sublimation pressure” value is 20 ± 1.5 kPa. Also, the Normal boiling temperature in data set [1] was found to be 269.31 ± 2.2 °C. The refractive index in data set [2] (298.15 K) is recorded as 1.4762 ± 0.0005; in data set [2] (303.15 K), 1.4751 ± 0.0005.
